Measured values reported in patent EP4722195A1, “PH-SENSITIVE CATIONIC LIPID AND LIPID NANOPARTICLES” (National University Corporation Hokkaido University, priority 2023, dated 2024).
Each block holds one compound with its values, some of them ahead of it.

Assays:
[1] = Average particle size and polydispersity index of lipid nanoparticles (dynamic light scattering); type: physicochemical
Experimental: The average particle size (number average value), ζ-average particle size, and polydispersity index (PdI) of the lipid nanoparticles in PBS(-) (pH 7.4), and the zeta potential in 10 mM HEPES buffer (pH 7.4) were measured using an analyzer "Zetasizer Nano ZS ZEN3600" (manufactured by Malvern) utilizing dynamic light scattering.

liver [2] = test: EGFP expression in liver tissue sections of mice administered EGFP mRNA-loaded lipid nanoparticles (confocal microscopy); type: in vivo, Balb/c mice; conditions: for fluorescence of EGFP in the liver tissues / gene expression in hepatocytes: Example 27, Fig. 6, EGFP mRNA-loaded lipid nanoparticles TxT/DSPC/chol/PEG-DMG=50/3/47/1.5 (mol%), 24 hours post-administration
Experimental: Subsequently, each EGFP mRNA-loaded lipid nanoparticle was administered to Balb/c mice at a dose of 0.2 mg mRNA/kg. At 23 hours and 50 minutes post-administration, fluorescently labeled lectin (DyLight-649 Lycopersicon (Tomato) Lectin) was intravenously injected via the tail vein at 40 µg/mouse to fluorescently label vascular endothelial cells. At 24 hours after administration of the lipid nanoparticles, the mice were euthanized, and their livers were collected to prepare tissue sections. For nuclear staining, the tissue sections were immersed in a nuclear staining solution (1 µg/mL Hoechst 33342 dissolved in PBS(-)), cooled on ice, and incubated for at least 30 minutes in the dark. The stained tissue sections were then observed using a confocal laser scanning microscope. Subsequently, in the same manner as Example 26, each EGFP mRNA-loaded lipid nanoparticle was administered to Balb/c mice. At 23 hours and 50 minutes post-administration, fluorescently labeled lectin was administered. At 24 hours after administration of the lipid nanoparticles, the mice were euthanized, and their livers were collected to prepare tissue sections. Each tissue section was observed using a confocal laser scanning microscope. In the figure, the upper panels show fluorescence images of EGFP, and the lower panels show fluorescence images of vascular endothelial cells (fluorescently labeled lectin).

liver [3] = test: Fluc activity in the liver of mice administered Fluc mRNA-loaded lipid nanoparticles; type: in vivo, BALB/c mice; conditions: for Fluc activity in the liver at 6, 24, and 48 hours after administration: Example 28, Fig. 7, TxT-5-5A12β versus TxT-5-5A14 nanoparticles, 50/3/47/1.5 (mol%)
Experimental: Lipid nanoparticles were administered to mice by intravenous injection into the tail vein using a 27G needle. Unless otherwise specified, BALB/c mice (4 to 5 weeks old, female) were used.
First, BALB/c mice (female, 4 weeks old) were intravenously injected with lipid nanoparticles encapsulating Fluc mRNA (Fluc mRNA-loaded lipid nanoparticles) at a dose of 0.1 mg mRNA/kg. Six hours after intravenous injection, the mice were euthanized, each tissue was collected, frozen in liquid nitrogen, and stored at -80°C. The tissues were homogenized in passive lysis buffer (manufactured by Promega) using a bead-type cell disruptor (Micro Smash MS-100R, manufactured by TOMY Seiko). Tissue debris was removed by centrifugation, and the supernatant was collected. Fluc activity in the supernatant was measured using the Luciferase Assay System (E1500, manufactured by Promega) according to the manufacturer's protocol. Luminescence was measured using a luminometer (Luminescencer-PSN, manufactured by ATTO). Protein concentration was determined using a commercially available assay kit (BCA Protein Assay Kit, manufactured by Pierce). Fluc activity was expressed as relative light units (RLU) per mg of protein.
Subsequently, lipid nanoparticles encapsulating Fluc mRNA prepared using TxT-5-5A10, TxT-5-5A12, TxT-5-5A12β, TxT-5-5A14, and TxT-5-5A16 were administered to mice to evaluate luciferase expression levels (Fluc activity) in various tissues. Specifically, each Fluc mRNA-loaded lipid nanoparticle was administered to Balb/c mice at a dose of 0.1 mg mRNA/kg. Six hours after administration, the mice were euthanized, and their organs were collected to measure Fluc activity (RLU/mg protein) (N = 2 or 4).

[4] = Encapsulation rate of lipid nanoparticles (Ribogreen); type: physicochemical
Experimental: The encapsulation rate of the lipid nanoparticles was determined by measuring the amount of encapsulated nucleic acid (mRNA) using Ribogreen (manufactured by Life Technologies), which is an RNA intercalator. The mRNA amount was quantified based on a calibration curve prepared from a series of diluted mRNA solutions at known concentrations.
Specifically, 10 mM HEPES buffer (pH 7.4), 10 w/v% Triton X-100, and Ribogreen were mixed at 978.8 µL, 20 µL, and 1.25 µL per 10 wells, respectively, to obtain a Triton(+) buffer. A Triton(-) buffer was obtained in replacing Triton X-100 with 10 mM HEPES buffer (pH 7.4). 100 µL/well of the sample was added to a black 96-well plate for fluorescence measurement, and 100 µL/well of Triton(+) buffer or Triton(-) buffer was added. After the plate was gently shaken on a shaking incubator (SI-300, manufactured by AS ONE) (700 rpm, 30 seconds), the fluorescence intensity of each well was measured using a microplate reader (VARIOSKAN LUX, manufactured by Thermo Fisher Scientific) (wavelength Ex/Em=500 nm/525 nm), and the nucleic acid encapsulation rate (%) was calculated.

[5] = Apparent pKa of lipid nanoparticles (TNS)
[6] = Table 1, Fluc mRNA-loaded lipid nanoparticles, TxT/DSPC/chol/PEG-DMG=50/15/35/1.5 (mol%)
[7] = Table 3, Fluc mRNA-loaded lipid nanoparticles, TxT/DSPC/chol/PEG-DMG=50/3/47/1.5 (mol%)
[8] = Table 5, EGFP mRNA-loaded lipid nanoparticles, TxT/DSPC/chol/PEG-DMG=50/3/47/1.5 (mol%), total flow rate 3.0 mL/min
[9] = Table 6 (Example 28), Fluc mRNA-loaded lipid nanoparticles, TxT/DSPC/chol/PEG-DMG=50/3/47/1.5 (mol%)
[10] = Table 7, hEPO mRNA-loaded lipid nanoparticles, TxT/DSPC/chol/PEG-DMG=50/3/47/1.5, SM-102/DSPC/chol/PEG-DMG=50/10/40/1.5 (mol%)
[11] = Table 8 (Example 32), lipid nanoparticles for TTR-targeted genome editing, Cas9-mRNA and TTR-gRNA 1:2 (N/P = 6.0), TxT/DSPC/chol/PEG-DMG = 50/3/47/1.5 (mol%)
[12] = Table 1, apparent pKa of Fluc mRNA-loaded lipid nanoparticles, TxT/DSPC/chol/PEG-DMG=50/15/35/1.5 (mol%)
[13] = Table 4, Fluc mRNA-loaded lipid nanoparticles, TxT-5-5A14/DSPC/chol/PEG-DMG=50/3/47/1.5, SM-102, ALC-0315 or MC3/DSPC/chol/PEG-DMG=50/10/40/1.5 (mol%)
[14] = Table 9 (Example 33), lipid nanoparticles for TTR-targeted genome editing, Cas9-mRNA and TTR-gRNA 1:2 (N/P = 6.0), TxT-5-5A14/DSPC/chol/PEG-DMG = 50/3/47/1.5 (mol%)
[15] = Table 10 (Example 34), lipid nanoparticles for PCSK9-targeted genome editing, Cas9-mRNA and PCSK9-gRNA 1:2 (N/P = 6.0), TxT-5-5A14/DSPC/chol/PEG-DMG = 50/3/47/1.5 (mol%)

average particle diameter, comparison among TxT lipids ([1]; Example 32, Table 8, lipid nanoparticles for TTR-targeted genome editing): largest
Pdl [1, 6]: 0.08
number average particle size [1, 6]: 82.8 nm
ζ-average particle size [1, 6]: 111.9 nm
Pdl [1, 7]: 0.08
number average particle size [1, 7]: 72.8 nm
ζ-average particle size [1, 7]: 96.0 nm
Pdl [1, 8]: 0.05
number average particle size [1, 8]: 81.9 nm
ζ-average particle size [1, 8]: 104.0 nm
Pdl [1, 9]: 0.06
number average particle size [1, 9]: 71.2 nm
ζ-average particle size [1, 9]: 92.0 nm
Pdl [1, 10]: 0.10
number average particle size [1, 10]: 66.9 nm
ζ-average particle size [1, 10]: 88.9 nm
Pdl [1, 11]: 0.02
number average particle size [1, 11]: 71.3 nm
ζ-average particle size [1, 11]: 87.8 nm
mRNA concentration [4, 6]: 0.024 µg/µL
mRNA encapsulation rate [4, 6]: 97.0%
mRNA concentration [4, 7]: 0.023 µg/µL
mRNA encapsulation rate [4, 7]: 99.5%
mRNA concentration [4, 8]: 0.016 µg/µL
mRNA encapsulation rate [4, 8]: 99.1%
mRNA concentration [4, 9]: 0.020 µg/µL
mRNA encapsulation rate [4, 9]: 98.0%
mRNA concentration [4, 10]: 0.017 µg/µL
mRNA encapsulation rate [4, 10]: 99.5%
mRNA concentration [4, 11]: 0.412 µg/µL
mRNA encapsulation rate [4, 11]: 99.1%
pKa [5, 12]: 4.90
pKa [5, 7]: 6.53
Compound: CCCCCCC(CCCC)CNC(=O)CCCC(=O)OCC(COC(=O)CCCC(=O)NCC(CCCC)CCCCCC)(COC(=O)CCCC(=O)NCC(CCCC)CCCCCC)NC(=O)CCN1CCCCC1 (stereo not drawn) [TxT-5-5A12β, 2-(((5-((2-butyloctyl)amino)-5-oxopentanoyl)oxy)methyl)-2-(3-(piperidin-1-yl)propanamido)propane-1,3-diyl bis(5-((2-butyloctyl)amino)-5-oxopentanoate)]
fluorescence of EGFP in the liver tissues (liver [2]): fluorescence of EGFP was observed
gene expression in hepatocytes (liver [2]): notably high levels of gene expression
Fluc activity in the liver at 6, 24, and 48 hours after administration (liver [3]; N = 3): comparable levels of gene expression at all time points

Pdl [1, 6]: 0.11
number average particle size [1, 6]: 72.4 nm
ζ-average particle size [1, 6]: 106.2 nm
Pdl [1, 7]: 0.08
number average particle size [1, 7]: 78.9 nm
ζ-average particle size [1, 7]: 101.0 nm
Pdl [1, 13]: 0.08
number average particle size [1, 13]: 82.4 nm
ζ-average particle size [1, 13]: 113.8 nm
Pdl [1, 8]: 0.06
number average particle size [1, 8]: 80.9 nm
ζ-average particle size [1, 8]: 106.0 nm
Pdl [1, 9]: 0.09
number average particle size [1, 9]: 79.6 nm
ζ-average particle size [1, 9]: 107.7 nm
Pdl [1, 10]: 0.04
number average particle size [1, 10]: 76.6 nm
ζ-average particle size [1, 10]: 103.4 nm
Pdl [1, 11]: 0.05
number average particle size [1, 11]: 66.4 nm
ζ-average particle size [1, 11]: 82.2 nm
Pdl [1, 14]: 0.10
number average particle size [1, 14]: 67.7 nm
ζ-average particle size [1, 14]: 91.8 nm
Pdl [1, 15]: 0.10
number average particle size [1, 15]: 73.6 nm
ζ-average particle size [1, 15]: 99.4 nm
mRNA concentration [4, 6]: 0.025 µg/µL
mRNA encapsulation rate [4, 6]: 98.8%
mRNA concentration [4, 7]: 0.022 µg/µL
mRNA encapsulation rate [4, 7]: 98.6%
mRNA concentration [4, 13]: 0.022 µg/µL
mRNA encapsulation rate [4, 13]: 99.4%
mRNA concentration [4, 8]: 0.023 µg/µL
mRNA encapsulation rate [4, 8]: 99.0%
mRNA concentration [4, 9]: 0.021 µg/µL
mRNA encapsulation rate [4, 9]: 98.2%
mRNA concentration [4, 10]: 0.022 µg/µL
mRNA encapsulation rate [4, 10]: 99.3%
mRNA concentration [4, 11]: 0.467 µg/µL
mRNA encapsulation rate [4, 11]: 96.5%
mRNA concentration [4, 14]: 0.037 µg/µL
mRNA encapsulation rate [4, 14]: 99.1%
mRNA concentration [4, 15]: 0.311 µg/µL
mRNA encapsulation rate [4, 15]: 97.1%
pKa [5, 12]: 4.99
pKa [5, 7]: 6.46
pKa [5, 13]: 6.53
Compound: CCCCCCCN(CCCCCCC)C(=O)CCCC(=O)OCC(COC(=O)CCCC(=O)N(CCCCCCC)CCCCCCC)(COC(=O)CCCC(=O)N(CCCCCCC)CCCCCCC)NC(=O)CCN1CCCCC1 [TxT-5-5A14, 2-(((5-(diheptylamino)-5-oxopentanoyl)oxy)methyl)-2-(3-(piperidin-1-yl)propanamido)propane-1,3-diyl bis(5-(diheptylamino)-5-oxopentanoate)]
GFP expression in cell types of the liver (liver [2]; Example 26, Fig. 5, EGFP mRNA-loaded lipid nanoparticles 50/3/47/1.5 (mol%), 0.2 mg mRNA/kg, 24 hours after administration): GFP expression was observed not only in hepatocytes but also in vascular endothelial cells
fluorescence of EGFP in the liver tissues (liver [2]): fluorescence of EGFP was observed
gene expression in hepatocytes (liver [2]): notably high levels of gene expression
Fluc activity (liver), comparison among TxT lipids (liver [3]; Example 24, Fig. 3A, TxT/DSPC/chol/PEG-DMG=50/3/47/1.5 (mol%), 0.1 mg mRNA/kg, six hours): highest Fluc activity
Fluc activity in the liver compared to lipid nanoparticles comprising other cationic lipids (SM-102, ALC-0315, MC3) (liver [3]; Example 25, Fig. 4, TxT-5-5A14 50/3/47/1.5, comparators 50/10/40/1.5 (mol%), 0.1 mg mRNA/kg, six hours, N = 3): significantly higher Fluc activity
Fluc activity in the liver at 6, 24, and 48 hours after administration (liver [3]; N = 3): comparable levels of gene expression at all time points
